Measured values published in paper PMC3335078, “Length and Amino Acid Sequence of Peptides Substituted for the 5-HT3A Receptor M3M4 Loop May Affect Channel Expression and Desensitization” (PLoS ONE, 2012).

What was measured:
[1] = target: T1, 5-HT3A M3M4 loop SQPAAAA construct (Mus musculus, UniProt P23979); experiment: Two-electrode voltage clamp, oocytes expressing SQPAAAA loop construct; type: cell-based; conditions: 10 µM 5-HT, Xenopus oocytes
T1 construct: expressed in transfected cells; host or cells: Xenopus laevis oocytes injected with mRNA
Description: (§1) The mouse 5-HT3A cDNA with an N-terminal V5 epitope tag was cloned into the pXOON vector as previously described, and is referred to in this paper as “wild-type” (WT). The starting construct for all of the M3M4 loop replacement constructs used in this work was the 5-HT3A-ΔM3M4 construct formed by splicing the cytoplasmic end of M3 (M3-LVHK/QDLQRP…) to the cytoplasmic end of M4 (…WLRVGY/VLDRLL-M4). The splice was made at the site of the “/” to yield the sequence M3-LVHK/VLDRLL-M4 [34]. This removed 115 residues predicted to form the M3M4 loop.
(§2) The construction of the 5-HT3A-glvM3M4 chimera with the 5-HT3A M3M4 loop replaced by the GLIC heptapeptide M3M4 loop (SQPARAA) was described previously. Point mutations, alanine and Gly-Ser-Ala insertions into the 5-HT3A-ΔM3M4 construct were generated with the Quikchange site directed mutagenesis procedure (Stratagene, La Jolla, CA). […]
(§3) Currents were recorded under two-electrode voltage clamp from oocytes 2–5 d post-injection as described previously. […]
(§4) Desensitization rates were determined by fitting a single exponential decay function to the current data with Prism 4 software (GraphPad Software). Significant differences compared with wild-type were determined by a one-way ANOVA (p<0.05) using Dunnett's multiple comparison post-hoc test (p<0.05). […]

[2] = target: T2, 5-HT3A M3M4 loop SQPAEAA construct (Mus musculus, UniProt P23979); experiment: Two-electrode voltage clamp, oocytes expressing SQPAEAA loop construct; type: cell-based; conditions: 10 µM 5-HT, Xenopus oocytes
T2 construct: expressed in transfected cells; host or cells: Xenopus laevis oocytes injected with mRNA
Description: as §1, §2, §3, §4

[3] = target: T3, 5-HT3A-A3 (M3M4 loop replaced by three alanines) (Mus musculus, UniProt P23979, DELINS338-452AAA); experiment: Two-electrode voltage clamp, oocytes expressing 5-HT3A-A3; type: cell-based
T3 construct: expressed in transfected cells; host or cells: Xenopus laevis oocytes injected with mRNA
T3 sequence (P23979 with tags, fused parts or gaps isoform P23979-2 DELINS338-452AAA limits assumed): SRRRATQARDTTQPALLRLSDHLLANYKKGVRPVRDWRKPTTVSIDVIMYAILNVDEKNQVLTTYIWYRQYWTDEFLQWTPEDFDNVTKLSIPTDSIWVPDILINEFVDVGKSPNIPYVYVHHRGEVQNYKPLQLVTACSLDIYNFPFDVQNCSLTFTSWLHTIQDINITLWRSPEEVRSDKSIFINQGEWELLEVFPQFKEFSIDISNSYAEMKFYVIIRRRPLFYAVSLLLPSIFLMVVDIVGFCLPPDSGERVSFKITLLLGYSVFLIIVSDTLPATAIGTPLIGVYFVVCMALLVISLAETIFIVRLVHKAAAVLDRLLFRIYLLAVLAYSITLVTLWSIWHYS
Description: as §1
The construction of the 5-HT3A-glvM3M4 chimera with the 5-HT3A M3M4 loop replaced by the GLIC heptapeptide M3M4 loop (SQPARAA) was described previously. Point mutations, alanine and Gly-Ser-Ala insertions into the 5-HT3A-ΔM3M4 construct were generated with the Quikchange site directed mutagenesis procedure (Stratagene, La Jolla, CA). The entire coding region of all mutant constructs was verified by DNA sequencing (Albert Einstein College of Medicine DNA Sequencing Facility). The pXOON plasmid was linearized using NheI and capped mRNA prepared with T7 RNA polymerase (mMessage mMachine, Ambion, Austin, TX).
Use of Xenopus laevis in this study was carried out in strict accordance with the recommendations in the Guide for the Care and Use of Laboratory Animals of the National Institutes of Health. The protocol was approved by the Albert Einstein College of Medicine Animal Care and Use Committee (Protocol Number: 20081201). All surgery was performed under tricaine anesthesia, and all efforts were made to minimize suffering. Oocyctes were harvested from Xenopus (Nasco Science, Fort Atkinson, WI) anesthetized with 0.15% tricaine. Oocyctes were defolliculated by incubation in 2 mg ml^−1 Type 1A collagenase (Sigma-Aldrich, St. Louis, MO) in OR2 (85 mM NaCl, 2 mM KCl, 1 mM MgCl2, and 5 mM HEPES; pH adjusted to 7.5 with NaOH) for a 60 or 75 min. Oocytes were washed in OR2 and stored at 16°C in SOS medium: 100 mM NaCl, 2 mM KCl, 1 mM MgCl2, 1.8 mM CaCl2 5 mM HEPES, pH 7.5 with 100 IU ml^−1 penicillin, 100 µg ml^−1 streptomycin, and 250 ng ml^−1 amphotericin B (Invitrogen, Carlsbad, CA) and 5% horse serum (Sigma-Aldrich). 24 hrs following isolation, oocyctes were injected with 23 nl (2.3 ng) of mRNA and were kept in SOS media for 2–5 d at 16°C.
Currents were recorded under two-electrode voltage clamp from oocytes 2–5 d post-injection as described previously. […] The perfusion chamber volume was 200 µl. […]
as §4

5-HT3A-A2 = target: T4, 5-HT3A-A2 (Mus musculus, UniProt P23979, DELINS338-452AA); experiment: Radioactive 5-HT binding to oocytes expressing 5-HT3A-A2; conditions: 150 nM [3H]5-HT + 10 µM 5-HT, 5 min, 45 s cold wash
T4 construct: expressed in transfected cells; host or cells: Xenopus laevis oocytes injected with mRNA
Experimental: Assays were terminated by five washes with ice cold CFFR buffer, followed by solubilization of the oocytes individually with 200 µl 5% SDS. Total wash time was 45 s. […] All data points represent the average of at least fifteen individual oocytes derived from three separate oocyte isolations.
To determine the extent of non-specific binding, all binding experiments were performed in parallel with diethylpyrocarbonate-(DEPC)-treated-water injected oocytes or uninjected oocytes.

[4] = target: T5, 5-HT3A receptor wild-type (WT, V5-tagged) (Mus musculus, UniProt P23979); experiment: Two-electrode voltage clamp, 5-HT-induced currents in oocytes expressing wild-type 5-HT3A; type: cell-based; conditions: wildtype
T5 construct: unrelated to the structural/functional states accessible to a normal full-length 5-HT3A receptor; expressed in transfected cells; host or cells: Xenopus laevis oocytes injected with mRNA
T5 sequence (P23979 24-483 isoform P23979-2 limits assumed): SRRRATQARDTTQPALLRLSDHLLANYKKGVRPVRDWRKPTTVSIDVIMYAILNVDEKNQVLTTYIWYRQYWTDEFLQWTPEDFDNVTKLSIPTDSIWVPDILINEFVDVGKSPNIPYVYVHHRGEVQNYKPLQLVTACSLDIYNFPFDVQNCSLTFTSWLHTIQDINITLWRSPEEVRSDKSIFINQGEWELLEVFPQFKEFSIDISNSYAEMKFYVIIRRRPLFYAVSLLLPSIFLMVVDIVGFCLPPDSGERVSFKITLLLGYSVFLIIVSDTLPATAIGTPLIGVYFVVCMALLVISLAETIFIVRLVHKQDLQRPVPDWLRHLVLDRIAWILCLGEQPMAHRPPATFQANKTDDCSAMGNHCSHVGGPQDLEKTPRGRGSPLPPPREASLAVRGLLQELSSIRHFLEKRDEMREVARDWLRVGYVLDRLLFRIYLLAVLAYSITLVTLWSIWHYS
Experimental: The mouse 5-HT3A cDNA with an N-terminal V5 epitope tag was cloned into the pXOON vector as previously described [34], and is referred to in this paper as “wild-type” (WT).
Currents were recorded under two-electrode voltage clamp from oocytes 2–5 d post-injection as described previously [37]. […] The perfusion chamber volume was 200 µl. A 3 M KCl/agar bridge connected the ground electrode to the bath. The holding potential was maintained at −60 mV. […] Salts were purchased from Fisher Scientific (Hampton, NH) or Sigma-Aldrich.
Desensitization rates were determined by fitting a single exponential decay function to the current data with Prism 4 software (GraphPad Software). Significant differences compared with wild-type were determined by a one-way ANOVA (p<0.05) using Dunnett's multiple comparison post-hoc test (p<0.05). […] One way ANOVA (P<0.05) with post hoc Dunnett's Multiple Comparison test was performed using Prism 5.0 (Graphpad software.)

[5] = target: T6, 5-HT3A M3M4 loop GSA mutant (Mus musculus, UniProt P23979, DELINS338-452GSA); experiment: Two-electrode voltage clamp, oocytes expressing GSA M3M4 mutant; type: cell-based; conditions: 10 µM 5-HT, Xenopus oocytes
T6 construct: expressed in transfected cells; host or cells: Xenopus laevis oocytes injected with mRNA
Description: as §1, §2, §3, §4

T1 sequence (P23979 with tags, fused parts or gaps): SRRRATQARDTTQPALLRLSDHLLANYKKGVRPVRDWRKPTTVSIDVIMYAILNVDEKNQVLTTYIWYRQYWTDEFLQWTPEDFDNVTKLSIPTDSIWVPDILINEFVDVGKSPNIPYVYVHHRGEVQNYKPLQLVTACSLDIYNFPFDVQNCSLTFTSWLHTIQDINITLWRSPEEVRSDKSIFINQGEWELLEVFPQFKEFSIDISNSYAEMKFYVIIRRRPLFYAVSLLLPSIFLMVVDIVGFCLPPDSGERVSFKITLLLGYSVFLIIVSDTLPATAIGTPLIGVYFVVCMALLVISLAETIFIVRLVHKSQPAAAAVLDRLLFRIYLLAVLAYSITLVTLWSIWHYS
T6 sequence (P23979 with tags, fused parts or gaps isoform P23979-2 DELINS338-452GSA limits assumed): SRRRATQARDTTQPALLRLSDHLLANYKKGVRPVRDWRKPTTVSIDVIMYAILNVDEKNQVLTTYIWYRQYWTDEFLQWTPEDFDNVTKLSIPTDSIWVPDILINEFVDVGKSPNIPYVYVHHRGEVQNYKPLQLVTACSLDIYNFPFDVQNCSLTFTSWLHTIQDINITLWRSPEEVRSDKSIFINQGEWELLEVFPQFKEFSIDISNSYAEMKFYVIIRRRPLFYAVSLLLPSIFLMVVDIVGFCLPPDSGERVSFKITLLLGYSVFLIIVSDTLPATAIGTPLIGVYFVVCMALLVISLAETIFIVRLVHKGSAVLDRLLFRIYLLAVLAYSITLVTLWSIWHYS
T2 sequence (P23979 with tags, fused parts or gaps): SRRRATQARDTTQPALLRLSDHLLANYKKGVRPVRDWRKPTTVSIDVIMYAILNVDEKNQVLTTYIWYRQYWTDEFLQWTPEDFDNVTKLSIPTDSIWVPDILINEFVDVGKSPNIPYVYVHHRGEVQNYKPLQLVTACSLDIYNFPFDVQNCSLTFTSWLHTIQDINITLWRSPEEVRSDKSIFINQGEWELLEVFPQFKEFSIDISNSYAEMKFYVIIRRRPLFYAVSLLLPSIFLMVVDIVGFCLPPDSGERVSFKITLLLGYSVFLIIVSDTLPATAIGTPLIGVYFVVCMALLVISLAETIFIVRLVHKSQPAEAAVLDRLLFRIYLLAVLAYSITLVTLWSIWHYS
T4 sequence (P23979 with tags, fused parts or gaps isoform P23979-2 DELINS338-452AA limits assumed): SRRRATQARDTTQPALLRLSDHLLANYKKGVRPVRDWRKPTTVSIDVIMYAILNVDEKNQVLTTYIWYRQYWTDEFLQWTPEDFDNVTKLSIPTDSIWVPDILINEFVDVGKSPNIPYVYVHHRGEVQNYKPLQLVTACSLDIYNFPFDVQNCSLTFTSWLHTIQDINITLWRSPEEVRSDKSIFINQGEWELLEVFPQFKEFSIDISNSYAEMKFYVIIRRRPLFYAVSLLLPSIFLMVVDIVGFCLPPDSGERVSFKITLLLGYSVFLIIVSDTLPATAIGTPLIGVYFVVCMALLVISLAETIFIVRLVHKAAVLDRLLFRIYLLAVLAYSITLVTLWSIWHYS

NCCc1c[nH]c2ccc(O)cc12 [5-HT, 5-hydroxytryptamine]
5-HT induced current [1]: large currents
5-HT induced current [2]: large currents
nH (Hill coefficient) [3]: 2.6±0.4
10–90% Activation rise time ([3]; 10 µM 5-HT): 621 ± 47 ms
Imax (peak current) ([3]; 10 µM 5-HT, Xenopus oocytes, -60 mV): 6300±800 nA
Desensitization time constant τ ([3]; prolonged 10 µM 5-HT, may be limited by solution exchange): 8 ± 2 s
Radiolabeled 5-HT bound per oocyte (5-HT3A-A2): 0.33±0.06 pmol per oocyte
10–90% Activation rise time ([4]; 10 µM 5-HT): 587 ± 51 ms
Imax (peak current) ([4]; 10 µM 5-HT (saturating), Xenopus oocytes, -60 mV): 7300±700 nA
Desensitization time constant τ ([4]; prolonged 10 µM 5-HT, Ca-free buffer): 77 ± 18 s
5-HT induced current [5]: 50±12 nA
